According to paper PMC9718554, “Discovery of a fragment hit compound targeting D-Ala:D-Ala ligase of bacterial peptidoglycan biosynthesis” (Journal of Enzyme Inhibition and Medicinal Chemistry, 2022):
Read-outs that look alike come from different tables or passages of the source.

Target: T1, E. coli DdlB enzyme (D-alanine:D-alanine ligase) (Escherichia coli, UniProt P07862)
T1 construct: made in house; host or cells: E. coli
Assay: biochemical
Conditions: read-out: DdlB RA; for remaining activity at 2000 µM: tested concentration 2.0 mM; for remaining activity at 1700 µM: tested concentration 1.7 mM; for remaining activity at 2400 µM: tested concentration 2.4 mM; for remaining activity at 2300 µM: tested concentration 2.3 mM; for remaining activity at 2900 µM: tested concentration 2.9 mM; for remaining activity at 2200 µM: tested concentration 2.2 mM; for remaining activity at 2100 µM: tested concentration 2.1 mM; for remaining activity at 2600 µM: tested concentration 2.6 mM; for remaining activity at 3100 µM: tested concentration 3.1 mM; for remaining activity at 3400 µM: tested concentration 3.4 mM; for remaining activity at 2700 µM: tested concentration 2.7 mM; for remaining activity at 3500 µM: tested concentration 3.5 mM; for remaining activity at 1900 µM: tested concentration 1.9 mM; for remaining activity at 2500 µM: tested concentration 2.5 mM; for remaining activity at 3000 µM: tested concentration 3.0 mM
Method: The fragment library was assayed in a DdlB inhibition assay, where fragments were tested for their ability to inhibit the D-Ala-adding activity of DdlB ligase. The orthophosphate formed during the enzymatic reaction was measured spectrophotometrically using malachite green reagent.
A recombinant E. coli DdlB enzyme (D-alanine:D-alanine ligase) was expressed in E. coli[11]. […] The final DMSO concentration was 5%. […] All experiments were performed in duplicates. […] IC50 values were determined by measuring the residual activities in quadruplicate at seven different compound concentrations and calculated using in GraphPad Prism (GraphPad Software, San Diego, CA, USA).

[1] = residual activity, tested concentration 1.8 mM
[2] = residual activity of DdlB, fragment library screening

CCOc1ccc([C@@H](CC(=O)O)NC(C)=O)cc1 [Compound 6705-0233]
remaining activity at 2000 µM (fragment library screening): 87%

COc1ccc(OC)c(-c2oc3ccccc3c(=O)c2O)c1 [Compound 6877-0609]
remaining activity at 1700 µM: 102%

Cc1ccc(CC2CC(=O)N(c3ccncc3)C2=O)cc1 (centres unmarked) [Compound 6903-0015]
remaining activity at 2000 µM (residual activity): 84%

O=C(Nc1ccccn1)NC1CCS(=O)(=O)C1 (centres unmarked) [Compound 7098-0576]
remaining activity at 2400 µM: 87%

Nc1ncnc2[nH]c(N3CCOCC3)nc12 [Compound 8001-0336]
remaining activity at 2300 µM (residual activity): 98%

Nc1ccc(S(=O)(=O)O)cc1 [Compound 8001-1265]
remaining activity at 2900 µM: 95%

O=C(Nc1nc[nH]n1)c1ccc(Cl)cc1 [Compound 8003-7117]
remaining activity at 2200 µM (residual activity): 103%

O=C1CSC2N1CCNC21CCCCC1 (centres unmarked) [Compound 8003-7360]
remaining activity at 2200 µM: 90%

CCC(CC)NC1=NS(=O)(=O)c2ccccc21 [Compound 8003-7481]
remaining activity at 2400 µM: 100%

NCCNC(=O)c1nonc1N [Compound 8006-0101]
remaining activity at 3200 µM (residual activity of DdlB, fragment library screening, tested concentration 3.2 mM): 93%

CC(=O)Nc1ccc2c(C)cc(C)nc2n1 [Compound 8006-1575]
remaining activity at 2300 µM: 97%

Cc1ccc(C(=O)O)c(NC(=O)c2ccncc2)c1 [Compound 8006-9224]
remaining activity at 2000 µM (residual activity): 97%

CCCOc1ccc(C(=O)NCC(=O)O)cc1 [Compound 8007-0359]
remaining activity at 2100 µM: 86%

Cc1ccc(C2(O)CC(C)N(C)CC2C)cc1 (centres unmarked) [Compound 8007-1141]
remaining activity at 2600 µM: 94%

O=C(O)Cn1nnc(-c2ccccc2Cl)n1 [Compound 8007-4998]
remaining activity at 2100 µM: 93%

COC(=O)N1C2C=CC(C2)C1(C(F)(F)F)C(F)(F)F (centres unmarked) [Compound 8007-6774]
remaining activity at 2100 µM (residual activity): 89%

NS(=O)(=O)Cc1ccccc1Cl [Compound 8008-0774]
remaining activity at 2400 µM: 89%

Cc1cc(C)c(S(N)(=O)=O)c(Cl)n1 [Compound 8008-1931]
remaining activity at 2300 µM: 78%

CCN(CC)S(=O)(=O)c1ncn[nH]1 [Compound 8008-1932]
remaining activity at 2400 µM: 93%

OB1OCc2ccccc21 [Compound 8008-5589]
remaining activity at 3700 µM (tested concentration 3.7 mM): 85%

Cc1nc(C#N)c(N2CCOCC2)o1 [Compound 8008-9715]
remaining activity at 3100 µM: 93%

Cc1cccc(C(=O)O)c1NC(=O)c1ccc(F)cc1 [Compound 8009-0898]
remaining activity at 1800 µM [1]: 99%

N#Cc1ccc(NC(=O)[C@H]2CC=CC[C@H]2C(=O)O)cc1 [Compound 8009-1194]
remaining activity at 2000 µM (residual activity): 91%

O=S(=O)(O)c1ccc2cccc(O)c2n1 [Compound 8009-2146]
remaining activity at 2200 µM: 96%

O=C(O)C#CC12CC3CC(CC(C3)C1)C2 [Compound 8009-2654]
remaining activity at 2400 µM: 112%

CC1CN(c2ccccc2)NC1=O (centres unmarked) [Compound 8009-3796]
remaining activity at 3400 µM [2]: 97%

Cc1cc(F)c(F)c(C(=O)n2ccnc2)c1Cl [Compound 8009-4247]
remaining activity at 2100 µM: 102%

Cc1nc2nc(S(N)(=O)=O)nn2c(C)c1C [Compound 8009-4322]
remaining activity at 2100 µM: 97%

Cc1ccc(C#N)c(SCC(=O)O)n1 [Compound 8009-7785]
remaining activity at 2400 µM: 82%

Oc1nsnc1N1CCOCC1 [Compound 8009-8691]
remaining activity at 2700 µM: 88%

CCc1c(C)nn2cnnc2c1O [Compound 8010-0007]
remaining activity at 3400 µM [2]: 97%

Cc1ccc(Cl)cc1S(=O)(=O)N1CCOCC1 [Compound 8010-0539]
remaining activity at 2000 µM (residual activity): 98%

O=[N+]([O-])c1cc(CN2CCCC2)c2cccnc2c1O [Compound 8010-2705]
remaining activity at 1800 µM [1]: 57%

Nc1n[nH]c(CC(=O)O)n1 [Compound 8010-3882]
remaining activity at 3500 µM: 100%

CCCc1cc(C(=O)O)n(C)n1 [Compound 8010-6224]
remaining activity at 3300 µM (residual activity of DdlB, fragment library screening, tested concentration 3.3 mM): 90%

Cc1ccc(C(=O)CC2(O)C(=O)Nc3ccccc32)c(C)c1 (centres unmarked) [Compound 8010-6588]
remaining activity at 1700 µM: 93%

O=C(O)c1ccccc1NC(=O)c1[nH]ncc1[N+](=O)[O-] [Compound 8010-7769]
remaining activity at 1800 µM [1]: 99%

COC(C(=O)NC1CC1)c1ccccc1 (centres unmarked) [Compound 8010-8989]
remaining activity at 2400 µM: 94%

Cc1cc2nc(O)c(CCO)c(C)n2n1 [Compound 8011-1975]
remaining activity at 2900 µM: 95%

CSCCC(C(=O)O)N1C(=O)NC2NC(=O)NC21 (centres unmarked) [Compound 8011-2492]
remaining activity at 1800 µM (tested concentration 1.8 mM): 95%

O=C(O)C1CSC(c2c(F)cc(F)cc2F)N1 (centres unmarked) [Compound 8011-4426]
remaining activity at 1900 µM: 90%

NC(=O)N[C@@H](Cc1ccccc1)C(=O)O [Compound 8011-7026]
remaining activity at 2400 µM: 93%

CC1SC(c2ccc(Cl)c(Cl)c2)NC1=O (centres unmarked) [Compound 8011-7610]
remaining activity at 1900 µM: 80%

Oc1cc(-c2ccncc2)n[nH]1 [Compound 8011-7794]
remaining activity at 3100 µM: 77%

COC(=O)c1sc(C(=O)OC)c(O)c1O [Compound 8011-7913]
remaining activity at 2200 µM (residual activity): 86%

O=C(Nc1ccccc1)c1nc[nH]c1C(=O)O [Compound 8011-9089]
remaining activity at 2200 µM (residual activity): 104%

NC(=O)NCC(=O)N[C@H](Cc1c[nH]cn1)C(=O)O [Compound 8012-0410]
remaining activity at 2000 µM (fragment library screening): 91%

CC(C)C(=O)Nc1ccc(Cl)cc1C(=O)O [Compound 8012-2055]
remaining activity at 2100 µM (residual activity): 110%

CC1(C)CC(=O)CC(C)(C)N1OC(=O)c1ccccn1 [Compound 8012-5220]
remaining activity at 2200 µM (residual activity): 97%

Cc1cc(C)n(CCO)c(=O)n1 [Compound 8012-5852]
remaining activity at 2400 µM [2]: 94%

O=C(O)CCNc1nc(F)cc(F)n1 [Compound 8012-6989]
remaining activity at 2500 µM: 93%

CC(C)(C)c1cc(C(=O)O)nn1-c1ccccc1 [Compound 8012-7831]
remaining activity at 2000 µM (residual activity): 102%

Nn1cnn(Cc2ccc([N+](=O)[O-])cc2)c1=O [Compound 8012-9514]
remaining activity at 2100 µM: 106%

O=S(=O)(c1ncn[nH]1)N1CCOCC1 [Compound 8013-0403]
remaining activity at 2300 µM (residual activity): 95%

CCN(Cc1ccccc1)S(=O)(=O)c1ncn[nH]1 [Compound 8013-0404]
remaining activity at 1900 µM (residual activity): 89%

C#CC1(O)C(C)CN(C)CC1C (centres unmarked) [Compound 8013-1764]
remaining activity at 3600 µM (residual activity of DdlB, fragment library screening, tested concentration 3.6 mM): 97%

COc1ccc(C(O)(C(=O)O)C(F)(F)F)cc1OC (centres unmarked) [Compound 8013-2786]
remaining activity at 1800 µM [1]: 94%

O=C1CC2CS(=O)(=O)CC2N1C1CCCCC1 (centres unmarked) [Compound 8013-3540]
remaining activity at 2100 µM: 82%

CC1(C)CC(n2nc(O)cc2N)CCO1 (centres unmarked) [Compound 8013-3639]
remaining activity at 2400 µM: 101%

CC1(C)Cc2noc(N)c2C(C)(C)N1O [Compound 8013-4059]
remaining activity at 2200 µM: 96%

O=c1[nH]c2cc(S(=O)(=O)N3CCCCC3)ccc2o1 [Compound 8013-5568]
remaining activity at 1800 µM (tested concentration 1.8 mM): 103%

O=C(O)Cn1nnc(O)n1 [Compound 8013-5932]
remaining activity at 3500 µM: 86%

COc1ccc(-n2c(C)ccc2C)nc1 [Compound 8014-1211]
remaining activity at 2500 µM: 22%

CC(C)(C)C(N)Cn1cccn1 (centres unmarked) [Compound 8014-1588]
remaining activity at 2100 µM [2]: 99%

O=C1C(O)CC2c3ccccc3CC3(CCCC3)N12 (centres unmarked) [Compound 8014-1716]
remaining activity at 2300 µM: 85%

CC(C)n1ncc(C(N)=O)c1N [Compound 8014-2120]
remaining activity at 3000 µM [2]: 92%

CC(=O)N1CCC(O)C2CCCCC21 (centres unmarked) [Compound 8014-2178]
remaining activity at 2500 µM: 99%

COC(=O)C(O)(c1cc(C)c(N)c(C)c1)C(F)(F)F (centres unmarked) [Compound 8015-4257]
remaining activity at 1800 µM: 94%

Cc1nn(-c2ccccn2)c2c1C(=O)C(C#N)CC2 (centres unmarked) [Compound 8015-7286]
remaining activity at 2200 µM: 83%

O=C(O)CC1(CC(=O)Nc2cccnc2)CCCC1 [Compound 8016-0695]
remaining activity at 1900 µM (fragment library screening): 93%

Cc1cc(O)n(-c2nnn[nH]2)n1 [Compound 8016-1033]
remaining activity at 3000 µM: 80%

O=C(O)c1nc2ccccc2nc1O [Compound 8016-8257]
remaining activity at 2600 µM: 97%

N#Cc1ccccc1S(N)(=O)=O [Compound 8016-9723]
remaining activity at 2700 µM: 88%

COc1cc(C(=O)NO)cc(OC)c1OC [Compound 8017-0604]
remaining activity at 2200 µM (residual activity): 96%

O=C(O)c1n[nH]cc1Br [Compound 8017-3539]
remaining activity at 2600 µM: 87%

COC(=O)c1nnn(-c2ccccc2)c1O [Compound 8017-3559]
remaining activity at 2300 µM: 104%

C=CCN1C(=O)NOC(N)=C1C#N [Compound 8017-4055]
remaining activity at 2800 µM (tested concentration 2.8 mM): 92%
